Assay results reported in patent US20230101747A1 (Schrödinger, Inc., priority 2019, published 2023).
pIC50: −log10 of the molar value.

Target: T1, Full length human CDC7 protein co-expressed with DBF4 (Homo sapiens, UniProt O00311)
T1 construct: Full length human CDC7 protein co-expressed with DBF4; purchased SignalChem (China)
Experiment: CDC7 kinase biochemical assay (ADP-Glo, PDKtide substrate)
Conditions: 0.1 nM CDC7/DBF4, 1 uM ATP, 10 uM PDKtide, 4 h; read-out: CDC7 ADP-Glo PDKtide IC50
Experimental: CDC7 Kinase Biochemical Assay Protocol:
Full length human CDC7 protein co-expressed with DBF4 was purchased from SignalChem (China). CDC7 kinase activity was determined with PDKtide (SignalChem) as a substrate and by measuring ADP production using the ADP-Glo™ Kinase Assay kit (Promega) following the manufacturers instructions. The kinase reaction was performed using the following conditions: Buffer: 40 mM Tris pH 7.5, 20 mM MgCl2, 0.1 mg/ml BSA and 50 uM DTT. Final reaction mix contained 0.1 nM CDC7/DBF4, 1 uM ATP and 10 uM PDKtide. The kinase reaction time was 4 h. The ADP-Glo signal was measured using an EnVision plate reader (PerkinELmer).
Percent inhibition of CDC7 kinase activity was calculated based on the following formula: […]
SSample: the signal of compounds SHigh ctrl: the signal of high control (DMSO) SLow Ctrl: the signal of low control (positive control CDC7 inhibitor)

T1 sequence (O00311 whole entry): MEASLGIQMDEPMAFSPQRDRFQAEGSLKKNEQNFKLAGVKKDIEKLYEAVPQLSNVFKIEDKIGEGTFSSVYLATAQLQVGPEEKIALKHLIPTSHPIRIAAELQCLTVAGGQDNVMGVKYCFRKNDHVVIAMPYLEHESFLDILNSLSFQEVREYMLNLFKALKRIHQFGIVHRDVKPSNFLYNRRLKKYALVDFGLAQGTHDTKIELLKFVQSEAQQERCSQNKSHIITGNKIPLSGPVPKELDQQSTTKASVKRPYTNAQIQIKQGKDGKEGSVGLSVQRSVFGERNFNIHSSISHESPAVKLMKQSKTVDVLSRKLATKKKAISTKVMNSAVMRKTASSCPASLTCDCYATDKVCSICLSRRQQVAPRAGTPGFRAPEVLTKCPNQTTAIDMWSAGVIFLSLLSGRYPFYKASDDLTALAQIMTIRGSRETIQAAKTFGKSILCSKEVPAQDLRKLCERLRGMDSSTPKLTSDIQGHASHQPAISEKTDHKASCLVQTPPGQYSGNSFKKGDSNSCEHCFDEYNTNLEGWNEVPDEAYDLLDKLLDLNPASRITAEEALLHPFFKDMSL
T1 sequence (Q9UBU7 whole entry partner): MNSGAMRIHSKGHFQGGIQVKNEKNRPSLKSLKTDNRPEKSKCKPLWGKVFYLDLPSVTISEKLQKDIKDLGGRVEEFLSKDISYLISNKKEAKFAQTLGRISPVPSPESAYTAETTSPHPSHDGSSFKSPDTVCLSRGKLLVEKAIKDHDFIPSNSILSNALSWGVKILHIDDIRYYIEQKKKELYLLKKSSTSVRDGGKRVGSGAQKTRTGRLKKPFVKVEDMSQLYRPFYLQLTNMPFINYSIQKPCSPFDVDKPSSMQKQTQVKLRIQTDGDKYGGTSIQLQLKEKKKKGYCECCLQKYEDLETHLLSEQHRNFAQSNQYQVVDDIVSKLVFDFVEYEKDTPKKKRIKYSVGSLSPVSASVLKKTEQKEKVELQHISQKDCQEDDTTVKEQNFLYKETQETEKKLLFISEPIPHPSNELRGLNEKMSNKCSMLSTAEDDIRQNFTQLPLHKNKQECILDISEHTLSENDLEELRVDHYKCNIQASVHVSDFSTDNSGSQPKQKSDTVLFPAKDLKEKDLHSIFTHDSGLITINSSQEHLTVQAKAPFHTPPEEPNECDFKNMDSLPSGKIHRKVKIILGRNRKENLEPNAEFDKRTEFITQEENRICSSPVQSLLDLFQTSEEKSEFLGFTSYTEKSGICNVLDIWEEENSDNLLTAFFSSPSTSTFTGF

SMILES	pIC50
CC1C(C2CCC2)NC(=O)c2sc(-c3cn[nH]c3)c3c2N1CCO3 (racemic) [Compound 96, 10-cyclobutyl-9-methyl-3-(1H-pyrazol-4-yl)-5-oxa-2-thia-8,11-diazatricyclo[6.4.1.0^4,13] trideca-1(13),3-dien-12-one]	> 9.00
O=C1NC[C@H](C2CCOCC2)N2CCOc3c(-c4cn[nH]c4)sc1c32 (single isomer, unassigned) [Compound 28]	< 8.00
COC[C@H]1[C@@H](C2CCC2)NC(=O)c2sc(-c3cn[nH]c3)c3c2N1CCO3 (single isomer, unassigned) [Compound 98]	8.00 to 9.00
COC[C@@H]1[C@H](C2CCC2)NC(=O)c2sc(-c3cn[nH]c3)c3c2N1CCO3 (single isomer, unassigned) [Compound 99]	8.00 to 9.00
O=C1NC(C2CCCCO2)CN2CCCc3c(-c4cn[nH]c4)sc1c32 (single isomer, unassigned) [Compound 107]	> 9.00
O=C1NC(C2CCCCO2)CN2CCCc3c(-c4cn[nH]c4)sc1c32 (single isomer, unassigned) [Compound 108]	> 9.00
O=C1NC(C2CCCCO2)CN2CCCc3c(-c4cn[nH]c4)sc1c32 (single isomer, unassigned) [Compound 109]	< 8.00
O=C1NC(C2CCCCO2)CN2CCCc3c(-c4cn[nH]c4)sc1c32 (single isomer, unassigned) [Compound 110]	> 9.00
O=C1NC(C2CC(F)(F)C2)CN2CCOc3c(-c4cn[nH]c4)sc1c32 (single isomer, unassigned) [Compound 111, (R or S)-7-(3,3-difluorocyclobutyl)-2-(1H-pyrazol-4-yl)-4,5,7,8-tetrahydro-3-oxa-1-thia-5a,8-diazabenzo[cd]azulen-9(6H)-one]	> 9.00
O=C1NC(C2CC(F)(F)C2)CN2CCOc3c(-c4cn[nH]c4)sc1c32 (single isomer, unassigned) [Compound 112, (S or R)-7-(3,3-difluorocyclobutyl)-2-(1H-pyrazol-4-yl)-4,5,7,8-tetrahydro-3-oxa-1-thia-5a,8-diazabenzo[cd]azulen-9(6H)-one]	> 9.00
O=C1NC(C2CC(F)(F)C2)CN2CC(F)(F)Cc3c(-c4cn[nH]c4)sc1c32 (single isomer, unassigned) [Compound 113, (R or S)-7-(3,3-difluorocyclobutyl)-4,4-difluoro-2-(1H-pyrazol-4-yl)-4,5,7,8-tetrahydro-3H-1-thia-5a,8-diazabenzo[cd]azulen-9(6H)-one]	> 9.00
O=C1NC(C2CC(F)(F)C2)CN2CC(F)(F)Cc3c(-c4cn[nH]c4)sc1c32 (single isomer, unassigned) [Compound 114, (R or S)-7-(3,3-difluorocyclobutyl)-4,4-difluoro-2-(1H-pyrazol-4-yl)-4,5,7,8-tetrahydro-3H-1-thia-5a,8-diazabenzo[cd]azulen-9(6H)-one]	> 9.00
Cc1n[nH]cc1-c1sc2c3c1CC(F)(F)CN3C[C@H]([C@H]1CCCO1)NC2=O (single isomer, unassigned) [Compound 119]	> 9.00
O=C1N[C@@H]([C@@H]2CCCO2)CN2CC(F)(F)Cc3c(-c4cn[nH]c4)sc1c32 (single isomer, unassigned) [Compound 120]	> 9.00
O=C1N[C@H](C23CCC(CC2)O3)CN2CC(F)(F)Cc3c(-c4cn[nH]c4)sc1c32 (single isomer, unassigned) [Compound 122]	< 8.00
O=C1NC([C@H]2[C@@H]3COC[C@@H]32)CN2CC(F)(F)Cc3c(-c4cn[nH]c4)sc1c32 (single isomer, unassigned) [Compound 123]	> 9.00

SMILES	pIC50
O=C1NC([C@H]2[C@@H]3COC[C@@H]32)CN2CC(F)(F)Cc3c(-c4cn[nH]c4)sc1c32 (single isomer, unassigned) [Compound 124]	> 9.00
O=C1NC(C2CC(F)(F)C2)CN2CC(F)Cc3c(-c4cn[nH]c4)sc1c32 (single isomer, unassigned) [Compound 127, 7-(3,3-difluorocyclobutyl)-4-fluoro-2-(1H-pyrazol-4-yl)-4,5,7,8-tetrahydro-3H-1-thia-5a,8-diazabenzo[cd]azulen-9(6H)-one]	> 9.00
O=C1NC(C2CC(F)(F)C2)CN2CC(F)Cc3c(-c4cn[nH]c4)sc1c32 (single isomer, unassigned) [Compound 128, 7-(3,3-difluorocyclobutyl)-4-fluoro-2-(1H-pyrazol-4-yl)-4,5,7,8-tetrahydro-3H-1-thia-5a,8-diazabenzo[cd]azulen-9(6H)-one]	8.00 to 9.00
O=C1NC(C2CC(F)(F)C2)CN2CC(F)Cc3c(-c4cn[nH]c4)sc1c32 (single isomer, unassigned) [Compound 129, 7-(3,3-difluorocyclobutyl)-4-fluoro-2-(1H-pyrazol-4-yl)-4,5,7,8-tetrahydro-3H-1-thia-5a,8-diazabenzo[cd]azulen-9(6H)-one]	> 9.00
O=C1NC(C2CC(F)(F)C2)CN2CC(F)Cc3c(-c4cn[nH]c4)sc1c32 (single isomer, unassigned) [Compound 130, 7-(3,3-difluorocyclobutyl)-4-fluoro-2-(1H-pyrazol-4-yl)-4,5,7,8-tetrahydro-3H-1-thia-5a,8-diazabenzo[cd]azulen-9(6H)-one]	> 9.00
O=C1N[C@H](C2CCCCO2)CN2CC(F)(F)Cc3c(-c4cn[nH]c4)sc1c32 (single isomer, unassigned) [Compound 137]	< 8.00
O=C1N[C@H](C2CCCCO2)CN2CC(F)(F)Cc3c(-c4cn[nH]c4)sc1c32 (single isomer, unassigned) [Compound 138]	8.00 to 9.00
O=C1N[C@@H](C2CCCCO2)CN2CC(F)(F)Cc3c(-c4cn[nH]c4)sc1c32 (single isomer, unassigned) [Compound 139]	> 9.00
O=C1N[C@@H]([C@@H]2CCCCO2)CN2CC(F)(F)Cc3c(-c4cn[nH]c4)sc1c32 (single isomer, unassigned) [Compound 140]	> 9.00
CC1(C)NC(=O)c2sc(-c3ccncn3)c3c2N1CCCN3 [Compound 1, 5,5-dimethyl-1-(pyrimidin-4-yl)-4,5,6,7,8,9-hexahydro-3H-2-thia-4,5a,9-triazabenzo[cd]azulen-3-one]	> 9.00
CC1(C)NC(=O)c2sc(-c3ccncc3)c3c2N1CCO3 [Compound 2, 6,6-dimethyl-2-(pyridin-4-yl)-4,5,6,7-tetrahydro-8H-3-oxa-1-thia-5a,7-diazaacenaphthylen-8-one]	> 9.00
CC1(C)NC(=O)c2sc(-c3ccncc3)c3c2N1CCCO3 [Compound 3, 5,5-Dimethyl-1-(pyridin-4-yl)-4,5,7,8-tetrahydro-3H,6H-9-oxa-2-thia-4,5a-diazabenzo[cd]azulen-3-one]	> 9.00
CC1(C)NC(=O)c2sc(-c3c[nH]c4ncncc34)c3c2N1CCO3 [Compound 4, 6,6-dimethyl-2-(7H-pyrrolo[2,3-d]pyrimidin-5-yl)-4,5,6,7-tetrahydro-8H-3-oxa-1-thia-5a,7-diazaacenaphthylen-8-one]	8.00 to 9.00
CC1(C)NC(=O)c2sc(-c3ccncn3)c3c2N1CCO3 [Compound 5, 6,6-Dimethyl-2-(pyrimidin-4-yl)-4,5,6,7-tetrahydro-8H-3-oxa-1-thia-5a,7-diazaacenaphthylen-8-one]	< 8.00
Cc1[nH]ncc1-c1sc2c3c1OCCN3C(C)(C)NC2=O [Compound 6, 6,6-dimethyl-2-(5-methyl-1H-pyrazol-4-yl)-4,5,6,7-tetrahydro-8H-3-oxa-1-thia-5a,7-diazaacenaphthylen-8-one]	8.00 to 9.00
